Experimental data taken from the supplement of paper PMC10307832.

Key:
Test in all cases: relative viability (nuclei count vs DMSO), 5 days (fraction); higher = more cells survive
[1] = compound: CC1(C)CNc2cc(NC(=O)c3cccnc3NCc3ccncc3)ccc21 [Motesanib] + O=C(c1cc(Cc2n[nH]c(=O)c3ccccc23)ccc1F)N1CCN(C(=O)C2CC2)CC1 [Olaparib] (partner 8 µM)
Procedure, shortened: (§1)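 Cells from lung cancer lines were seeded into 1536-well plates and, one day later, dosed by pin tool. Treatments were either a single drug or a fixed dose of an anchor drug with five library-drug doses (not always all listed) in √10 steps. After 5 days, nuclei were stained in a one-step fixation (final 0.05% Triton X-100, 1% formaldehyde, 1 ug/ml Hoechst) and counted on 4× images, and relative viability is the treated-to-vehicle nuclei ratio, as the median of duplicate plates.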

[2] = compound: CC1(C)CNc2cc(NC(=O)c3cccnc3NCc3ccncc3)ccc21 [Motesanib] + Cc1nc(NC(=O)N2CCC[C@H]2C(N)=O)sc1-c1ccnc(C(C)(C)C(F)(F)F)c1 [Alpelisib] (partner 2 µM)
Procedure, shortened: as §1

[3] = compound: C[C@@]1(C(=O)Nc2ccc(F)nc2)CCCN1c1nc(Nc2cc(C3CC3)n[nH]2)c2cccn2n1 + CC(C)C[C@H](NC(=O)[C@H](Cc1ccccc1)NC(=O)c1cnccn1)B(O)O [Bortezomib] (partner 0.002 µM)
Procedure, shortened: as §1

[4] = compound: C[C@@]1(C(=O)Nc2ccc(F)nc2)CCCN1c1nc(Nc2cc(C3CC3)n[nH]2)c2cccn2n1 + C[C@]1(O)C[C@@H](c2nc(-c3ccc4ccc(-c5ccccc5)nc4c3)c3c(N)nccn32)C1 [Linsitinib] (partner 1 µM)
Procedure, shortened: as §1

Cell Line	relative viability ([1]; first compound 0.01 µM)	relative viability ([1]; first compound 0.03162 µM)	relative viability ([1]; first compound 0.1 µM)	relative viability ([1]; first compound 0.3162 µM)	relative viability ([1]; first compound 1 µM)	relative viability ([2]; first compound 0.01 µM)	relative viability ([2]; first compound 0.03162 µM)	relative viability ([2]; first compound 0.1 µM)	relative viability ([2]; first compound 0.3162 µM)	relative viability ([2]; first compound 1 µM)	relative viability ([3]; first compound 0.04 µM)	relative viability ([3]; first compound 0.1265 µM)	relative viability ([3]; first compound 0.4 µM)	relative viability ([3]; first compound 1.265 µM)	relative viability ([4]; first compound 0.04 µM)	relative viability ([4]; first compound 0.1265 µM)	relative viability ([4]; first compound 0.4 µM)	relative viability ([4]; first compound 1.265 µM)
NCI-H522	0.691	0.674	0.594	0.677	0.876													
NCI-H838	0.778	0.765	0.792	0.746	0.804	0.992	1.02	1.08	0.982	1.03	0.807	0.687	0.498	0.547	1.09	0.848	0.753	0.874
SW 900	0.904	0.677	0.811	0.9	0.917													
A549	0.333	0.402	0.407	0.438	0.402	0.785	0.866	0.728	0.779	0.909					0.681	0.571	0.401	0.79
A-427	0.78	0.7	0.672	0.732	0.777	1.12	1.08	1.05	1.09	1.04	1	0.995	0.897	1.01	1.11	1.05	1.08	1.16
NCI-H1792	0.544	0.444	0.491	0.444	0.486	0.702	0.63	0.78	0.757	0.685	0.868	0.825	0.651	0.506	0.654	0.596	0.503	0.713
LCLC-97TM1	0.373	0.414	0.501	0.476	0.287	0.238	0.241	0.283	0.296	0.263	0.637	0.189	0.132	0.0641	0.191	0.173	0.163	0.207
NCI-H1703	0.442	0.305	0.318	0.223	0.232	0.294	0.283	0.211	0.183	0.239	0.349	0.328	0.415	0.237	1.03	0.457	0.632	0.695
LCLC-103H	0.777	0.737	0.758	0.807	0.742		0.947	1.06	0.931	0.987	1.07	1.08	0.788	0.958	1.23	1.01	1.01	1.18
PC-3 [JPC-3]	1.14	1.18	1.2	1.18	1.16	1.09	1.03	1.07	1.09	1.03	0.831	0.819	0.788	0.874	0.972	0.94	0.964	0.934
BEN	1.02	1.04	0.938	1.18	1.43	1.07	1.08	0.897	0.972	1.18	1.11	0.785	0.815	0.903	0.895	1.24	0.766	1.04
NCI-H1666	0.743	0.761	0.776	0.851	0.705	0.799	0.977	0.949	1.02	1.16	0.678	0.434	0.455	0.444	0.89	0.87	0.753	0.831
LC-2-ad	0.689	0.709	0.816	0.733	0.785	0.801	0.919	0.923	1.03	0.813	1.06	0.845	0.805	0.411	0.897	0.865	0.788	0.576
SK-LU-1	0.445	0.504	0.425	0.505	0.373	1.11	1.07	1.17	0.93	1.05	1.06	1.03	0.93	0.884	1.15	1.13	0.74	0.913
ChaGo-K-1	0.434	0.437	0.425	0.484	0.411						1.01	0.797	1.1	0.824				
COR-L 105	0.767	0.761	0.745	0.725	0.804	0.872	1.16	0.992	0.79	1.26	0.709	0.631	0.415	0.373	0.796	0.808	0.627	0.946
NCI-H358	0.507	0.652	0.626	0.658	0.633	0.949	0.938	0.88	0.839	1.02					0.654	0.663	0.494	0.474
NCI-H1944	0.444	0.4	0.432	0.46	0.428	0.785	0.853	0.89	0.885	0.855					1.18	1.2	1.1	1.3
NCI-H1648	0.563			1.1	1.06													
NCI-H2342	0.472	0.569	0.403	0.469	0.463													
SK-MES-1	0.736	0.725	0.736	0.677	0.575	1.04	0.948	0.961	0.927	0.995					1.03	0.95	0.957	1.05
NCI-H2170	0.694	0.656	0.599	0.61	0.684	0.803	0.789	0.824	0.785	0.794								
NCI-H1793	0.798	0.827	0.761	0.904	0.844	0.795	0.673	0.75	0.761	0.676					0.863	0.961	0.573	0.992
